Experimental data published in PubChem BioAssay (NCI).
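Here, GI50 denotes the concentration required for 50% inhibition of growth. TGI marks complete inhibition of growth.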

What was measured:
Experiment in all cases: NCI anticancer screen, dose series, 384-well format
[1] = tested on: MDA-MB-231 breast
[2] = tested on: UACC-257 melanoma
[3] = tested on: TK-10 renal
[4] = tested on: HCC-2998 colon
[5] = tested on: HCT-116 colon
[6] = tested on: OVCAR-3 ovarian
[7] = tested on: BT-549 breast
[8] = tested on: SN12C renal
[9] = tested on: M14 melanoma
[10] = tested on: A498 renal
[11] = tested on: HCT-15 colon
[12] = tested on: NCI-H522 lung
[13] = tested on: SW-620 colon
[14] = tested on: SK-MEL-5 melanoma
[15] = tested on: SF-539 CNS
[16] = tested on: ACHN renal
[17] = tested on: MDA-MB-468 breast
[18] = tested on: MOLT-4 leukemia
[19] = tested on: HL-60(TB) leukemia
[20] = tested on: 786-0 renal
[21] = tested on: SK-MEL-2 melanoma
[22] = tested on: SF-295 CNS
[23] = tested on: NCI/ADR-RES ovarian
[24] = tested on: SF-268 CNS
[25] = tested on: NCI-H226 lung
[26] = tested on: OVCAR-4 ovarian
[27] = tested on: RXF 393 renal
[28] = tested on: IGROV1 ovarian
[29] = tested on: UACC-62 melanoma
[30] = tested on: LOX IMVI melanoma
[31] = tested on: U251 glioblastoma
[32] = tested on: MALME-3M melanoma
[33] = tested on: HS 578T breast
[34] = tested on: COLO 205 colon
[35] = tested on: SK-OV-3 ovarian
[36] = tested on: SR leukemia
[37] = tested on: DU-145 prostate
[38] = tested on: NCI-H322M lung
[39] = tested on: K-562 leukemia
[40] = tested on: CAKI-1 renal
[41] = tested on: OVCAR-5 ovarian
[42] = tested on: SNB-75 CNS
[43] = tested on: CCRF-CEM leukemia
[44] = tested on: HT29 colon
[45] = tested on: HOP-92 NSCLC
[46] = tested on: KM12 colon
[47] = tested on: PC-3 prostate
[48] = tested on: A549 NSCLC
[49] = tested on: SNB-19 CNS
[50] = tested on: MCF7 breast
[51] = tested on: NCI-H23 lung
[52] = tested on: HOP-62 NSCLC
[53] = tested on: RPMI-8226 leukemia
[54] = tested on: MDA-MB-435 melanoma
[55] = tested on: SK-MEL-28 melanoma
[56] = tested on: EKVX NSCLC
[57] = tested on: T-47D breast
[58] = tested on: UO-31 renal
[59] = tested on: NCI-H460 NSCLC

With `CC1(C)CNc2cc(NC(=O)c3cccnc3NCc3ccncc3)ccc21` the GI50 [1] was 24.5 µM, the TGI [1] was 82 µM and the GI50 [2] was 30.9 µM. The TGI [2] was greater than 100 µM, the GI50 [3] was 14.2 µM and the TGI [3] was greater than 100 µM. For the same compound, the GI50 [4] was 38 µM, the TGI [4] was greater than 100 µM and the GI50 [5] was 46.7 µM. For the same compound, the TGI [5] was greater than 100 µM, the GI50 [6] was 14.8 µM and the TGI [6] was 40.6 µM. The GI50 [7] was 26.1 µM, the TGI [7] was 65.5 µM and the GI50 [8] was 30.4 µM. It also gave a TGI [8] greater than 100 µM, a GI50 [9] of 24.9 µM and a TGI [9] greater than 100 µM. The GI50 [10] was 25.6 µM, the TGI [10] was greater than 100 µM and the GI50 [11] was 16.6 µM. For the same compound, the TGI [11] was 44.7 µM, the GI50 [12] was 20.4 µM and the TGI [12] was 50.2 µM. For the same compound, the GI50 [13] was 49.6 µM, the TGI [13] was greater than 100 µM and the GI50 [14] was 13.1 µM. For the same compound, the TGI [14] was 28.3 µM, the GI50 [15] was 14.3 µM and the TGI [15] was greater than 100 µM. For the same compound, the GI50 [16] was 10.7 µM, the TGI [16] was 64.5 µM and the GI50 [17] was 9.35 µM. The TGI [17] was 25.1 µM, the GI50 [18] was 12.7 µM and the TGI [18] was 26.5 µM. For the same compound, the GI50 [19] was 25.5 µM, the TGI [19] was 42.4 µM and the GI50 [20] was 35.8 µM. It also gave a TGI [20] greater than 100 µM, a GI50 [21] of 39.2 µM and a TGI [21] of 58.3 µM. It also gave a GI50 [22] of 35.7 µM, a TGI [22] greater than 100 µM and a GI50 [23] of 17.8 µM. The TGI [23] was 42.7 µM, the GI50 [24] was 25.2 µM and the TGI [24] was 88.9 µM. It also gave a GI50 [25] of 9.96 µM, a TGI [25] of 31.4 µM and a GI50 [26] of 13.7 µM. The TGI [26] was 60.6 µM, the GI50 [27] was 11 µM and the TGI [27] was 29.6 µM. The GI50 [28] was 12.5 µM, the TGI [28] was 40.3 µM and the GI50 [29] was 19.1 µM. The TGI [29] was 97.7 µM, the GI50 [30] was 24.9 µM and the TGI [30] was 52.5 µM. For the same compound, the GI50 [31] was 46 µM, the TGI [31] was greater than 100 µM and the GI50 [32] was 20.1 µM. For the same compound, the TGI [32] was 66.5 µM, the GI50 [33] was 15.8 µM and the TGI [33] was 40.5 µM. It also gave a GI50 [34] of 31.6 µM, a TGI [34] greater than 100 µM and a GI50 [35] of 18.6 µM. For the same compound, the TGI [35] was 61.4 µM, the GI50 [36] was 11.4 µM and the TGI [36] was 24.3 µM. For the same compound, the GI50 [37] was 21.3 µM, the TGI [37] was greater than 100 µM and the GI50 [38] was 33.4 µM. For the same compound, the TGI [38] was greater than 100 µM, the GI50 [39] was 12.7 µM and the TGI [39] was 52.5 µM. The GI50 [40] was 19.4 µM, the TGI [40] was greater than 100 µM and the GI50 [41] was 52.9 µM. For the same compound, the TGI [41] was greater than 100 µM, the GI50 [42] was 22.1 µM and the TGI [42] was 80.9 µM. For the same compound, the GI50 [43] was 12.7 µM, the TGI [43] was 27.6 µM and the GI50 [44] was 24.6 µM. It also gave a TGI [44] of 66.8 µM, a GI50 [45] of 21.1 µM and a TGI [45] of 83.3 µM. It also gave a GI50 [46] of 38.8 µM, a TGI [46] greater than 100 µM and a GI50 [47] of 43.2 µM. The TGI [47] was greater than 100 µM, the GI50 [48] was 31.2 µM and the TGI [48] was greater than 100 µM. It also gave a GI50 [49] of 44.8 µM, a TGI [49] greater than 100 µM and a GI50 [50] of 23.3 µM. It also gave a TGI [50] greater than 100 µM, a GI50 [51] of 25.8 µM and a TGI [51] of 82.9 µM. It also gave a GI50 [52] of 70.9 µM, a TGI [52] greater than 100 µM and a GI50 [53] of 16 µM. It also gave a TGI [53] of 41.6 µM, a GI50 [54] of 29.4 µM and a TGI [54] of 98.4 µM. It also gave a GI50 [55] of 37.8 µM, a TGI [55] greater than 100 µM and a GI50 [56] of 17.9 µM. For the same compound, the TGI [56] was 48.6 µM, the GI50 [57] was 14.9 µM and the TGI [57] was 47.3 µM. The GI50 [58] was 25 µM, the TGI [58] was 85.5 µM and the GI50 [59] was 25.1 µM. For the same compound, the TGI [59] was greater than 100 µM.
